Measurements taken from ChEMBL document CHEMBL1201862, “PubChem BioAssay data set” (2004).
Each block holds one compound with its values, some of them ahead of it. Activity calls are given as the source filed them.

Key:
[1] = molecular target: Heat shock protein HSP 90-alpha (Homo sapiens, UniProt P07900); type: functional, organism-based
HeLa = assay: Cytotoxicity counterscreen assay for transcriptional activators of heat shock protein 70 (Hsp70). [Related pubchem assays: 1203, 1252 ]; type: functional; details: Homo sapiens;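 further: cells exposed to compound for 16 hours before readout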
INS1 = assay: INS-1E survival protection against cytokine death – cell-based, luminescence, retest, dose response (AID 449756); type: functional; details: Rattus norvegicus;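 further: cell death triggered by IL-1 beta plus TNF-alpha plus IFN-gamma mixture; protective hits raise ATP signal compared with cytokine alone wells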
Bcl-2-related protein A1 [2] = molecular target: T1, Bcl-2-related protein A1 (Mus musculus, UniProt Q07440); assay: small-molecule antagonists of Bfl-1/BH3 interaction – biochemical, TR-FRET, mouse Bfl-1, confirmation (AID 621);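 further: TR-FRET binding of GST-Bfl-1 to FITC-labelled Bid peptide via terbium antibody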
T1 sequence (Q07440 whole entry): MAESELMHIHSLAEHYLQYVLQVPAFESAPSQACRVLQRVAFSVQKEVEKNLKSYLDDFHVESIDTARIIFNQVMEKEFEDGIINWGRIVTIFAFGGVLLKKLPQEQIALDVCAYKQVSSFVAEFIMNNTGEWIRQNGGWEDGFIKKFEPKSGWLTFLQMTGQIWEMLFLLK

Bcl-2-related protein A1 [3] = molecular target: T1, Bcl-2-related protein A1; assay: displacement of Bid BH3 peptide from Bfl-1 – biochemical, fluorescence polarization, FITC-Bid, mouse, primary screen (AID 432)
Cytochrome P450 2C19 = Cytochrome P450 2C19 (Homo sapiens, UniProt P33261); assay: qHTS Assay for Inhibitors and Substrates of Cytochrome P450 2C19. [Related pubchem assays: 410 ]; type: ADME; details: read-out: Potency
[4] = viability of HCT116 lacking mutant beta-catenin – cell-based, human colon tumor, dose response (AID 1045); type: functional;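 further: HCT116 colon tumor cells with beta catenin knocked out; cells exposed to compound for 60 hours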
[5] = viability of PTEN-deleted HCT116 cells – cell-based, HCT116 PTEN knockout, dose response (AID 1047); type: functional;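 further: HCT116 colon tumor cells with PTEN knocked out; cells exposed to compound for 60 hours before readout; potency for loss of cell viability measured by luminescence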
Vero = assay: mammalian cell viability reduction – secondary assay, cytotoxicity control for West Nile virus antiviral project, dose response (AID 1650); type: functional; details: Chlorocebus sabaeus
HEK293 [6] = assay: cells; details: Homo sapiens
[7] = Luminescence Cell-Based Dose Retest to Confirm Inhibitors of Cancer Stem Cells. [Related pubchem assays (depositor defined):AID2717, AID2721]; type: functional; details: Homo sapiens
[8] = decrease of insulin promoter-GFP reporter – imaging, high-content screening, mouse beta cells (AID 1628); type: functional; details: MIN6
Paired box protein Pax-8 = Paired box protein Pax-8 (Homo sapiens, UniProt Q06710); assay: PAX8 transcriptional activity inhibition in RMG-I – RMG-I cells, luciferase, cherry-pick, dose response (AID 687027); type: functional, cell-based;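 further: luciferase reporter driven by Pax8 target thyroperoxidase promoter measured by SteadyGlo luminescence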
Galanin receptor type 2 = Galanin receptor type 2 (Homo sapiens, UniProt O43603); assay: Dose Response cell-based high-throughput screening assay to identify antagonists of galanin receptor 2 (GALR2). [Related pubchem assays: 828, 866 ]; type: functional
HEK293 [9] = assay: cells; details: Homo sapiens; remark: listed apart in the source
[10] = molecular target: Sphingosine 1-phosphate receptor 1 (Homo sapiens, UniProt P21453); type: functional;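 further: Tango beta-arrestin reporter U2OS cells stimulated with S1P near its EC80; inhibitor potency meaning antagonism of receptor activation by the natural agonist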
[11] = reduced cellular PGC1a acetyl-lysine signal – cell-based, cherry-picked samples, dose response (AID 720514); type: functional;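 further: potency may reflect raised or lowered acetylation signal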
[12] = Fluorescence-based cell-based high throughput dose response assay for inhibitors of the interaction of nucleotide-binding oligomerization domain containing 2 (NOD2) and the receptor-interacting serine-threonine kinase 2 (RIPK2).; type: functional; details: Homo sapiens
[13] = molecular target: Sphingosine 1-phosphate receptor 4 (Homo sapiens, UniProt O95977); assay: Fluorescence dose response cell-based high throughput screening assay for antagonists of the Sphingosine 1-Phosphate Receptor 4 (S1P4). [Related pubchem assays: 1524 (Confirmation in triplicates.), 1510 (Primary screen.)]; type: functional
[14] = MIN6 cell viability loss – mouse insulinoma, cytotoxicity control, dose response (AID 2122); type: functional;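 further: confirmatory high-throughput counterscreen run to flag cytotoxic compounds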
[15] = molecular target: T2, Heat shock factor protein 1 (Mus musculus, UniProt P38532); assay: enhancement of HSF1-driven luciferase signal – cell-based, NIH3T3, luminescence, dose retest, confirmation (AID 435004); type: functional;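 further: stress induced by proteasome inhibitor MG132 added 30 min after compound; luciferase reporter driven by HSF1 response element in NIH3T3 cells; actives raise luminescence as potentiators of the MG132 stress response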
T2 sequence (P38532 whole entry): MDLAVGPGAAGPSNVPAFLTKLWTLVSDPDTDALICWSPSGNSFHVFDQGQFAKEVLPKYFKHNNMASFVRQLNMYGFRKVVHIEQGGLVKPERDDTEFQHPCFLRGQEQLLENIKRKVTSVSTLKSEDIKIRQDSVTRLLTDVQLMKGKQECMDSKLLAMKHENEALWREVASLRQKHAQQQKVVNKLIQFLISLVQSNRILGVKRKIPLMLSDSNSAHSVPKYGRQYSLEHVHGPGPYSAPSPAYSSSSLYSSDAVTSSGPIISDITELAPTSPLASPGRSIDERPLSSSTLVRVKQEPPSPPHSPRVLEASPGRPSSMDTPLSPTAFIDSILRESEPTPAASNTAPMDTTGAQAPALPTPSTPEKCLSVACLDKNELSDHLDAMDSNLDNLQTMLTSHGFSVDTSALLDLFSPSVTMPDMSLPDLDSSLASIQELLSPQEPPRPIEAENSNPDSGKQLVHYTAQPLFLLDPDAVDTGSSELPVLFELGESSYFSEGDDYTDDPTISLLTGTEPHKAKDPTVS

[16] = molecular target: Melanin-concentrating hormone receptor 1 (Homo sapiens, UniProt Q99705); assay: Fluorescence-based counterscreen for antagonists of the G-protein coupled receptor 7 (GPR7): cell-based high throughput dose response assay to identify antagonists of the melanin-concentrating hormone receptor 1 (MCHR1).; type: functional
[17] = molecular target: T3, Neuropeptides B/W receptor type 1 (Homo sapiens, UniProt P48145); assay: Fluorescence-based dose response cell-based high throughput screening assay to identify antagonists of the G-protein coupled receptor 7 (GPR7). [Related pubchem assays: 1952 (Screening assay (GPR7 antagonists).), 1880 (Summary AID.)]; type: functional
T3 sequence (P48145 whole entry): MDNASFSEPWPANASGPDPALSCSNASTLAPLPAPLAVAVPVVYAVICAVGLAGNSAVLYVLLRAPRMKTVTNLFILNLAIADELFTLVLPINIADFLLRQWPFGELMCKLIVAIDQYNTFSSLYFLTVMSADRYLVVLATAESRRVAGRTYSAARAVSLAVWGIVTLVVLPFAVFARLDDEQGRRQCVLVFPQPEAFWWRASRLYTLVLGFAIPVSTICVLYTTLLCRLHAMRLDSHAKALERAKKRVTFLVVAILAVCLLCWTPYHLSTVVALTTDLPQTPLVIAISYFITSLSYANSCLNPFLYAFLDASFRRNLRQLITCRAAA

[18] = molecular target: Glyceraldehyde-3-phosphate dehydrogenase (Homo sapiens, UniProt P04406)
Bcl-2-related protein A1 [19] = molecular target: T1, Bcl-2-related protein A1; assay: Bfl-1 binding inhibitors, SAR follow-up, biochemical, fluorescence polarization (AID 1070)

Chain of Galanin receptor type 2 (O43603 whole entry): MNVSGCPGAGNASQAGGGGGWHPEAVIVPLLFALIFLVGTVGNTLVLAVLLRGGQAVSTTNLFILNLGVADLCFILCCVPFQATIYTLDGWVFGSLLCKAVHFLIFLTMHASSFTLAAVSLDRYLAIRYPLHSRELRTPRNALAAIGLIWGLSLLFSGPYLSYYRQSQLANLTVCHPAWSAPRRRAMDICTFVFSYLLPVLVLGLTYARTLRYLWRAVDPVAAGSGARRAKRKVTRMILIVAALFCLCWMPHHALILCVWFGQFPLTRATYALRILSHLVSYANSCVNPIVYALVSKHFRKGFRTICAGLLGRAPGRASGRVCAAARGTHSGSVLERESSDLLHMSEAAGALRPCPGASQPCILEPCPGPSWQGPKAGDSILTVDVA
Chain of Cytochrome P450 2C19 (P33261 whole entry): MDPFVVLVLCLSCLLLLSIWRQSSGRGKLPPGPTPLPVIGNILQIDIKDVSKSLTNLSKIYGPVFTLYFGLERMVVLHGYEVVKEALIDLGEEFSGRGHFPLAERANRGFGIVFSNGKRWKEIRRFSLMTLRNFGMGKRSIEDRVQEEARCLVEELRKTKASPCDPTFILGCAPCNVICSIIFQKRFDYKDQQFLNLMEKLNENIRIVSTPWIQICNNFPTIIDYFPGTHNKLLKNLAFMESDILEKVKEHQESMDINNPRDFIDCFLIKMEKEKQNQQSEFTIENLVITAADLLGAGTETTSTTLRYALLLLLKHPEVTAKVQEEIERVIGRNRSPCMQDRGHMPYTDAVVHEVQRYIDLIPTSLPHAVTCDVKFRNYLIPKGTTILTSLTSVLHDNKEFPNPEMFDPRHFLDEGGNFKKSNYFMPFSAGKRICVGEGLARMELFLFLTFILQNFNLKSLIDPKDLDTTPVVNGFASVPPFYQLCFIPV
Chain of Sphingosine 1-phosphate receptor 1 (P21453 whole entry): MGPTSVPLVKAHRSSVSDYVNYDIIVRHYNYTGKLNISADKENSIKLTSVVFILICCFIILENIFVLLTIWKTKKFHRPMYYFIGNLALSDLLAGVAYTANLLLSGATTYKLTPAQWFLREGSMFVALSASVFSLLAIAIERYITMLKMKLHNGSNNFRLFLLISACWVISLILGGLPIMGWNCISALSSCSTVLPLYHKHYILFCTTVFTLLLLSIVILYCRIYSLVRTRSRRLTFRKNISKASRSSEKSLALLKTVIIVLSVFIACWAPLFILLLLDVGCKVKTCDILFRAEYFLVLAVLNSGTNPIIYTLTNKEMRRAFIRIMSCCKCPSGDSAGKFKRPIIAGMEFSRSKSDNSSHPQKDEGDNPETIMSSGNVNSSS
Chain of Sphingosine 1-phosphate receptor 4 (O95977 whole entry): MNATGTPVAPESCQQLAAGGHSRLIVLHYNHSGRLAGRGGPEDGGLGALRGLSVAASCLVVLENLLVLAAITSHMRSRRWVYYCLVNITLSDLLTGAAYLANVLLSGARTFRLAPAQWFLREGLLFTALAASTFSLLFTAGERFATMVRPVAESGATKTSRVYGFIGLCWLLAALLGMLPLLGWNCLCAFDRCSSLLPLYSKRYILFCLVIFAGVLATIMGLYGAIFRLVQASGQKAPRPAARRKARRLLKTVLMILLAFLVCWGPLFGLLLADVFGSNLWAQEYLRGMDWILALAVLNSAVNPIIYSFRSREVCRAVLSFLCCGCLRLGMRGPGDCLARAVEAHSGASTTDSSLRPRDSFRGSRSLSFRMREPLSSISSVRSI
Chain of Melanin-concentrating hormone receptor 1 (Q99705 whole entry): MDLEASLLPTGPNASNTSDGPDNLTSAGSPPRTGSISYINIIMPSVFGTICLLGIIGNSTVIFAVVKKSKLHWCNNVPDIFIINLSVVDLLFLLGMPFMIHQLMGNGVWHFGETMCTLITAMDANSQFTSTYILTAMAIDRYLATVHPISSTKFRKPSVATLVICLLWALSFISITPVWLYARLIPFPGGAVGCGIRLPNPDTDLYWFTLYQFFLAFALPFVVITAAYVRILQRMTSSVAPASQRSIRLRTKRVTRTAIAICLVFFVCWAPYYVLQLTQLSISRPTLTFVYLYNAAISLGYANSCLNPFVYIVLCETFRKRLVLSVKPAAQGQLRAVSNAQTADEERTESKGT
Chain of Glyceraldehyde-3-phosphate dehydrogenase (P04406 whole entry): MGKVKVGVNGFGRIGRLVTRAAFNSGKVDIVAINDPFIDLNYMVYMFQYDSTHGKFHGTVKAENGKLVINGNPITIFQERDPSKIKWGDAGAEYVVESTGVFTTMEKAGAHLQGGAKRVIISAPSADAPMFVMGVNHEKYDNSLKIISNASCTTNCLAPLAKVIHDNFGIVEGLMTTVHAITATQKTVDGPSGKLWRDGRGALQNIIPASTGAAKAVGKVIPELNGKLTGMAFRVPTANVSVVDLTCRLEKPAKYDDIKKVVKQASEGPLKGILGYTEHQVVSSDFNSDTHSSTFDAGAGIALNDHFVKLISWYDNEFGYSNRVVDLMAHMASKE
Chain of Paired box protein Pax-8 (Q06710 whole entry): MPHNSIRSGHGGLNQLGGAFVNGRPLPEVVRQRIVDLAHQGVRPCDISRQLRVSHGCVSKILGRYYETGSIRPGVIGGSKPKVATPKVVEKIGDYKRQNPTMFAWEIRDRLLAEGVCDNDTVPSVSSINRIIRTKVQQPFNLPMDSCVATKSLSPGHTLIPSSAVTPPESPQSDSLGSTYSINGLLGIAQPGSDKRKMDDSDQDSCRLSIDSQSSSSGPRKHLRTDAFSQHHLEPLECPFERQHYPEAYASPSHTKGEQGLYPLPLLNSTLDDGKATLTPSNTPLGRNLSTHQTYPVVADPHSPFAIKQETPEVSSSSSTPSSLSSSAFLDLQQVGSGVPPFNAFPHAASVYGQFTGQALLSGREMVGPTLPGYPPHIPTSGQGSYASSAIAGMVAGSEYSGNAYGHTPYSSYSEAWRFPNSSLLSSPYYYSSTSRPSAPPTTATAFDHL

Structure (SMILES): CC(C)(C)C1C/C(=C/c2ccccn2)C(=O)/C(=C/c2ccccn2)C1 (stereo unspecified)
AC50 [1]: 7.8 µM (active)
CC50 (HeLa): > 1.22 µM (not active)
AC50 (INS1): 0.579 µM (active)

IC50 (Bcl-2-related protein A1 [2]): > 100 µM (not active)
IC50 (Bcl-2-related protein A1 [3]): > 100 µM (not active)
Structure (SMILES): O=C(NC12CC3CC(CC(C3)C1)C2)c1ccccc1O

AC50 (Cytochrome P450 2C19): 1.26 µM (inconclusive)
Structure (SMILES): OCC1OC(c2ccccc2)C=CC1Oc1cc(Cl)cc(Cl)c1 (stereo unspecified)

Structure (SMILES): C=CCn1c(SCC(=O)c2[nH]c(C)c(C(=O)OCC)c2C)nc2scc(-c3ccccc3)c2c1=O
EC50 [4]: 3.85 µM (active)
EC50 [5]: 5.36 µM (active)
CC50 (Vero): > 100 µM (active)

Structure (SMILES): O=C(Cn1ncc(Cl)c(Cl)c1=O)N1CCN(S(=O)(=O)c2ccc3ccccc3c2)CC1
EC50 (HEK293 [6]): > 59.6 µM (inactive)
AC50 [7]: 3.25 µM (active)
IC50 [8]: 1.34 µM (active)
AC50 (Paired box protein Pax-8): 2.51 µM (active)
IC50 (Galanin receptor type 2): 5.37 µM (active)
EC50 (HEK293 [9]): > 59.6 µM (inactive)
IC50 [10]: 8.59 µM (active)
AC50 [11]: 4.24 µM (active)
IC50 [12]: 1.77 µM (active)
IC50 [13]: 1.52 µM (active)
IC50 [14]: 1.19 µM (active)
EC50 [15]: 3.7 µM (active)

IC50 [16]: > 43.8 µM (not active)
IC50 [17]: > 43.8 µM (not active)
Structure (SMILES): COc1ccc(S(=O)(=O)N(CC(=O)Nc2ccc(S(=O)(=O)N3CCOCC3)cc2)Cc2ccc(F)cc2)cc1

IC50 (Bcl-2-related protein A1 [2]): 1.17 µM (active)
IC50 [18]: > 100 µM (not active)
IC50 (Bcl-2-related protein A1 [19]): 2.15 µM (active)
Structure (SMILES): CN1CCN(C2=C(Cl)C(=O)N(c3cccc(Cl)c3)C2=O)CC1
